From patent US8937072B2, “Substituted cyanoaniline compounds, preparation and use thereof” (Sinochem Corporation, priority 2011, dated 2015)

tested on: cucumber downy mildew; test: Protectant activity in vivo (whole plant) against cucumber downy mildew; conditions: dose 400 mg/L
Method: (§1) The method is as followed: The whole plant is used in this test. The compound is dissolved in a proper solvent to get mother solution. The proper solvent is selected from acetone, methanol, DMF and so on according to their dissolving capability to the sample. The volume rate of solvent and testing solution (v/v) is equal to or less than 5%. The mother solution is diluted with water containing 0.1% tween-80 to get the testing solution whose concentration is designed. The testing solution is sprayed to the host plant by a special plant sprayer. The plant is inoculated with fungus after 24 hours. According to the infecting characteristic of fungus, the plant is stored in a humidity chamber and then transferred into greenhouse after infection is finished. And the other plants are placed in greenhouse directly. The activity of compound is obtained by eyeballing after 7 days in common.

Row | SMILES | protectant activity against cucumber downy mildew in vivo [%]
1 | Cc1cccc(Cl)c1Nc1c(Cl)c(Cl)c(C#N)c(Cl)c1C#N [Compound B-23] | 100
2 | N#Cc1c(F)c(F)c(C#N)c(Nc2ccc([N+](=O)[O-])cc2)c1F [Compound C-70] | 100
3 | N#Cc1c(Cl)c(Cl)c(Nc2ccc(F)c(F)c2F)c(Cl)c1C#N [Compound A-41] | 100
4 | N#Cc1c(Cl)c(Cl)c(Nc2ccc(F)cc2F)c(C#N)c1Cl [Compound B-14] | 100
5 | Cc1cc(Cl)ccc1Nc1c(Cl)c(Cl)c(C#N)c(Cl)c1C#N [Compound B-22] | 100
6 | N#Cc1cc([N+](=O)[O-])ccc1Nc1c(Cl)c(Cl)c(C#N)c(Cl)c1C#N [Compound B-38] | 100

tested on: corn rust; test: Protectant activity in vivo (whole plant) against corn rust; conditions: 6.25 mg/L
Method: as §1

Row | SMILES | the protectant activity (%) against corn rust [%]
7 | N#Cc1c(Cl)c(Cl)c(Nc2c(Cl)cc([N+](=O)[O-])cc2Br)c(C#N)c1Cl [Compound B-55] | 0
8 | N#Cc1c(Cl)c(Cl)c(C#N)c(Nc2c(Br)cc([N+](=O)[O-])cc2Br)c1Cl [Compound C-41] | 50

same assay, conditions: 25 mg/L

Row | SMILES | the protectant activity (%) against corn rust [%]
9 | N#Cc1c(Cl)c(Cl)c(Nc2c(Cl)cc([N+](=O)[O-])cc2Br)c(C#N)c1Cl [Compound B-55] | 25
10 | N#Cc1c(Cl)c(Cl)c(C#N)c(Nc2c(Br)cc([N+](=O)[O-])cc2Br)c1Cl [Compound C-41] | 90

same assay, conditions: 100 mg/L

Row | SMILES | the protectant activity (%) against corn rust [%]
11 | N#Cc1c(Cl)c(Cl)c(Nc2c(Cl)cc([N+](=O)[O-])cc2Br)c(C#N)c1Cl [Compound B-55] | 100
12 | N#Cc1c(Cl)c(Cl)c(C#N)c(Nc2c(Br)cc([N+](=O)[O-])cc2Br)c1Cl [Compound C-41] | 100

same assay, conditions: 400 mg/L

Row | SMILES | the protectant activity (%) against corn rust [%]
13 | N#Cc1c(Cl)c(Cl)c(Nc2c(Cl)cc([N+](=O)[O-])cc2Br)c(C#N)c1Cl [Compound B-55] | 100
14 | N#Cc1c(Cl)c(Cl)c(C#N)c(Nc2c(Br)cc([N+](=O)[O-])cc2Br)c1Cl [Compound C-41] | 100

same assay, conditions: Zea mays, 168 h; 6.25 mg/L

Row | SMILES | pest or weed control at 6.25 µg/mL [%]
15 | N#Cc1c(F)c(Cl)c(Nc2ccc(Cl)cc2)c(C#N)c1F [KC18] | 0

same assay, conditions: Zea mays, 168 h; 25 mg/L

Row | SMILES | pest or weed control at 25 µg/mL [%]
16 | N#Cc1c(F)c(Cl)c(Nc2ccc(Cl)cc2)c(C#N)c1F [KC18] | 0

same assay, conditions: Zea mays, 168 h; 100 mg/L

Row | SMILES | pest or weed control at 100 µg/mL [%]
17 | N#Cc1c(F)c(Cl)c(Nc2ccc(Cl)cc2)c(C#N)c1F [KC18] | 0

same assay, conditions: Zea mays, 168 h; 400 mg/L; read-out: the protectant activity (%) against corn rust

Row | SMILES | pest or weed control at 400 µg/mL [%]
18 | N#Cc1c(F)c(Cl)c(Nc2ccc(Cl)cc2)c(C#N)c1F [KC18] | 0

same assay, conditions: Zea mays, 168 h; dose 400 mg/L; read-out: protectant activity against corn rust in vivo

Row | SMILES | pest or weed control at 400 µg/mL [%]
19 | N#Cc1c(F)c(Cl)c(Nc2ccc(Cl)cc2)c(C#N)c1F [KC18] | 0

same assay, conditions: dose 25 mg/L

Row | SMILES | protectant activity against corn rust in vivo [%]
20 | N#Cc1c(Cl)c(Cl)c(C#N)c(Nc2c(Br)cc([N+](=O)[O-])cc2Br)c1Cl [Compound C-41] | 90

same assay, conditions: dose 100 mg/L

Row | SMILES | protectant activity against corn rust in vivo [%]
21 | N#Cc1c(Cl)c(Cl)c(Nc2c(Cl)cc([N+](=O)[O-])cc2Br)c(C#N)c1Cl [Compound B-55] | 100
22 | N#Cc1c(Cl)c(Cl)c(C#N)c(Nc2c(Br)cc([N+](=O)[O-])cc2Br)c1Cl [Compound C-41] | 100

same assay, conditions: dose 400 mg/L

Row | SMILES | protectant activity against corn rust in vivo [%]
23 | N#Cc1c(Cl)c(Cl)c(Nc2c(Cl)cc([N+](=O)[O-])cc2Br)c(C#N)c1Cl [Compound B-55] | 100
24 | N#Cc1c(Cl)c(Cl)c(C#N)c(Nc2cc([N+](=O)[O-])ccc2Cl)c1Cl [Compound C-29] | 80
25 | N#Cc1c(F)c(F)c(C#N)c(Nc2c(Cl)cncc2Cl)c1F [Compound C-125] | 100
26 | N#Cc1c(Cl)c(Cl)c(C#N)c(Nc2ccc(Cl)c(C(F)(F)F)c2)c1Cl [Compound C-39] | 100
27 | N#Cc1c(F)c(F)c(C#N)c(Nc2ccc(Cl)cc2[N+](=O)[O-])c1F [Compound C-89] | 80
28 | Cc1ccccc1Nc1c(Cl)c(Cl)c(C#N)c(Cl)c1C#N [Compound B-1] | 100
29 | N#Cc1c(Cl)c(Cl)c(C#N)c(Nc2c(Br)cc([N+](=O)[O-])cc2Br)c1Cl [Compound C-41] | 100
30 | CCN(CC)c1c(Cl)c(Nc2ccccc2[N+](=O)[O-])c(C#N)c(Cl)c1C#N [Compound B-70] | 100
31 | N#Cc1c(F)c(F)c(C#N)c(Nc2c(Cl)cc([N+](=O)[O-])cc2Br)c1F [Compound C-99] | 100
32 | N#Cc1c(Cl)c(Cl)c(Nc2ccc(F)cc2F)c(C#N)c1Cl [Compound B-14] | 100
33 | N#Cc1cc(C#N)c(Nc2c(Cl)c(C#N)c(Cl)c(Cl)c2C#N)nc1Cl [Compound C-114] | 100
34 | N#Cc1cc([N+](=O)[O-])ccc1Nc1c(Cl)c(Cl)c(C#N)c(Cl)c1C#N [Compound B-38] | 100
